# Results: ChEMBL document CHEMBL1156829 (Proc Natl Acad Sci U S A, 2008)
# How the values were obtained:
# [1] = NOVARTIS: Cytotoxicity against human hepatocellular carcinoma cell line (Huh7); assay type: toxicity, cell-based, Huh-7; details: Huh7 cells (hepatocellular carcinoma cell line)
# Plasmodium falciparum [2] = test: NOVARTIS: Inhibition of Plasmodium falciparum W2 (drug-resistant) proliferation in erythrocyte-based infection assay; assay type: functional, organism-based; details: Plasmodium falciparum, W2; read-out: EC50
# Plasmodium falciparum [3] = test: NOVARTIS: Inhibition of Plasmodium falciparum 3D7 (drug-susceptible) proliferation in erythrocyte-based infection assay; assay type: functional, organism-based; details: Plasmodium falciparum, 3D7
Structure (SMILES),CC50 [1],EC50 (Plasmodium falciparum [2]),EC50 (Plasmodium falciparum [3])
CN(Cc1ccccc1)c1cc(-c2ccccn2)nc(-c2ccccn2)n1,> 10000 nM,514 nM,531 nM
COc1ccccc1NC(=O)CCN1CCCC(C)C1 (stereo not given),> 10000 nM,> 598 nM,> 1650 nM
COc1cc(C=C2CCC(=Cc3cc(OC)c(OC)c(OC)c3)C2=O)cc(OC)c1OC,> 100000 nM,2750 nM,2210 nM
CC=Cc1n(C)c2ccccc2[n+]1C,> 100000 nM,129 nM,613 nM
CCCN1CCC(N2CCCC(c3[nH]ncc3-c3cccc(C(F)(F)F)c3)C2)CC1 (stereo not given),> 10000 nM,448 nM,757 nM
N#Cc1c2c(c(N3CCN(C4CCCCC4)CC3)n3c1nc1ccccc13)CCC2,> 100000 nM,511 nM,183 nM
COC(=O)c1ccc(Nc2nc(NCc3ccco3)c3ccccc3n2)cc1,18800 nM,433 nM,279 nM
COc1ccc(NC(=O)c2c(Cl)nc(Cl)c([N+](=O)[O-])c2C)cc1,> 10000 nM,2060 nM,> 1250 nM
Cc1ncc([N+](=O)[O-])n1CCOC(=O)NC(Nc1ccc(Br)cc1)C(Cl)(Cl)Cl (stereo not given),> 100000 nM,152 nM,229 nM
Cc1ccc(C(=O)NCCN2CCCCC2)cn1,> 10000 nM,621 nM,> 1310 nM
c1ccc(Cn2c(N=Nc3c(Nc4ccccc4)ccc4ccccc34)nc3ccccc32)cc1,88000 nM,669 nM,2730 nM
C=CCn1c(COc2ccccc2C)nnc1SCC(=O)O,> 100000 nM,1050 nM,> 12500 nM
CCCCOc1ccc(C(=O)N(C)CCCNc2ccnc3cc(Cl)ccc23)cc1,4790 nM,69 nM,605 nM
CCOc1ccc(-n2nc(C(=O)NCCCN(C)Cc3ccccc3)c3ccccc3c2=O)cc1,> 100000 nM,10300 nM,> 11200 nM
O=C(C1Cc2ccccc2CN1S(=O)(=O)c1ccc(F)cc1)N1CCOCC1 (stereo not given),> 10000 nM,641 nM,> 1340 nM
CCOC(=O)c1c(NC(=O)CSc2nnc(CNC(=O)c3cccs3)n2-c2ccccc2OC)sc2c1CCC2,> 10000 nM,> 982 nM,> 619 nM
C[C@H]1C[C@H](C)C(=O)[C@@H]([C@@H](O)CC2CC(=O)NC(=O)C2)C1,304 nM,67.5 nM,21.6 nM
O=C(Nc1ccc(C2=NCCN2)cc1)c1cc(Cl)c(C(=O)Nc2ccc(C3=NCCN3)cc2)cc1Cl,> 10000 nM,308 nM,66 nM

Structure (SMILES),CC50 [1],EC50 (Plasmodium falciparum [2]),EC50 (Plasmodium falciparum [3])
O=C(CCl)Nc1ccc2c(c1)OCO2,20300 nM,831 nM,1900 nM
COc1ccc(/C=C/c2nc(=O)c3ccccc3o2)cc1,> 10000 nM,480 nM,1240 nM
Cc1sc2nc(C3CC3)n(C3CCN(C(=O)c4ccccn4)CC3)c(=O)c2c1C,> 10000 nM,2020 nM,> 1250 nM
COCCCNc1nc2nonc2nc1N(C)C1CCOCC1,> 10000 nM,> 1250 nM,> 682 nM
c1ccc(C2=NN(c3ccccc3)N(c3ccccc3)N2)cc1,> 100000 nM,129 nM,137 nM
CN(C)c1ccc(/C=C2/SC(=Nc3ccc(O)cc3)NC2=O)cc1,> 100000 nM,> 12500 nM,2820 nM
COc1cc(NC(=O)Cn2ncc3c(=O)oc4ccccc4c32)cc(OC)c1OC,> 100000 nM,7830 nM,> 12500 nM
O=[N+]([O-])c1cccc(C(Nc2nccs2)c2ccc3cccnc3c2O)c1 (stereo not given),16100 nM,198 nM,294 nM
O=C(NCCCN1CCCC1=O)c1ccc2nc(N3CCOCC3)sc2c1,26800 nM,4690 nM,7240 nM
O=C(CCc1ccccc1)c1ccccc1OCC(O)CN1CCCCC1 (stereo not given),87900 nM,144 nM,881 nM
CCOC(=O)C1=C(C)N(c2ccc(OCC)cc2)C(=O)C1=Cc1ccc(C(C)C)cc1,> 100000 nM,> 12500 nM,3500 nM
Cc1c(C(=O)Nc2ccccc2)sc2ncn(Cc3ccccc3Cl)c(=O)c12,> 100000 nM,2420 nM,5400 nM
O=[N+]([O-])c1ccc(-c2csc(CO)n2)cc1,> 100000 nM,4270 nM,> 12500 nM
COc1cc(C2C3=C(CC(C)(C)CC3=O)Nc3ccccc3N2C(=O)C(C)C)cc(OC)c1OC (stereo not given),> 10000 nM,40.7 nM,> 1250 nM
COc1ccccc1-n1c(C=Cc2cc(Br)ccc2O)nc2ccccc2c1=O,19400 nM,1240 nM,2070 nM
CCN(CC)c1ccc(/C=C/C23NC(=O)CCN2c2ccc(C)cc2C3(C)C)cc1 (stereo not given),> 10100 nM,1210 nM,1620 nM
CCCCCCCCC(=O)N1CCN(C(CC)c2nc3ccccc3c(=O)n2C)CC1 (stereo not given),> 10000 nM,500 nM,492 nM
